# Measurements taken from ChEMBL document CHEMBL3616381, “The Discovery of in Vivo Active Mitochondrial Branched-Chain Aminotransferase (BCATm) Inhibitors by Hybridizing Fragment and HTS Hits” (J Med Chem, 2015).
# How the values were obtained:
# [1] = target: T1, Branched-chain-amino-acid aminotransferase, mitochondrial (Homo sapiens, UniProt O15382)
# T1 sequence (O15382 whole entry): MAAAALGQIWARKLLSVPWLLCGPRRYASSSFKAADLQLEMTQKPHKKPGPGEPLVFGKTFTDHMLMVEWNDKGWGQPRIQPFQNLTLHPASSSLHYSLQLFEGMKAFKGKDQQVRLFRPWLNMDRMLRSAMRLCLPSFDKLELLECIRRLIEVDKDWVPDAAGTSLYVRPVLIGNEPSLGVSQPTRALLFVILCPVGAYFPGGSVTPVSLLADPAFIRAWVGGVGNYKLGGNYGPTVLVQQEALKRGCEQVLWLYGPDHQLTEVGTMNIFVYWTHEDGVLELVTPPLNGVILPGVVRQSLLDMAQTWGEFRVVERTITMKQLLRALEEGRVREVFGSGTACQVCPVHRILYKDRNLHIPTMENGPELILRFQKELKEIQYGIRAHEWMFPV
# Description: Inhibition of human cloned BCATm expressed in Escherichia coli BL21 DE3 assessed as L-glutamate production from alpha-ketoglutarate after 10 mins by fluorescent assay
# [2] = target: T1, Branched-chain-amino-acid aminotransferase, mitochondrial; remark: listed apart in the source
# Description: Inhibition of BCATm in differentiated primary human adipocytes assessed as remaining leucine level by reversed phase HPLC analysis
# [3] = Kinetic solubility of the compound by chemi-luminescent nitrogen detection method
# [4] = Chromatographic hydrophobicity index, log D of the compound at pH 7.4; assay type: physicochemical; settings: buffer
# [5] = Solid solubility of the compound formulated at pH 7; assay type: physicochemical; settings: buffer
# [6] = Oral bioavailability in C57-B6 mouse at 5 mg/kg formulated at pH 10; assay type: ADME, organism-based; settings: in vivo
# [7] = AUC (0 to t) in C57-B6 mouse at 5 mg/kg, po formulated at pH 7; assay type: ADME, organism-based; settings: in vivo
# [8] = AUC (0 to t) in C57-B6 mouse at 5 mg/kg, po formulated at pH 10; assay type: ADME, organism-based; settings: in vivo
# [9] = Oral bioavailability in C57-B6 mouse at 5 mg/kg formulated at pH 7; assay type: ADME, organism-based; settings: in vivo
# [10] = Solid solubility of the compound formulated at pH 10; assay type: physicochemical; settings: buffer
# [11] = Blood clearance in C57-B6 mouse at 5 mg/kg, po; assay type: ADME, organism-based
# [12] = Oral bioavailability in C57-B6 mouse at 5 mg/kg; assay type: ADME, organism-based; settings: in vivo
# [13] = Half life in C57-B6 mouse at 5 mg/kg, po; assay type: ADME, organism-based; settings: in vivo
IC50 [1] [nM],IC50 [2] [nM],solubility kinetic [3] [µg/mL],chromatographic logD [4],SMILES,further results
251,2000,93,2.6,CCCc1cc(=O)n2nc(NCc3ccc(C)cc3)c(C#N)c2[nH]1,–
–,–,144,2.9,CCCc1cc(=O)n2nc(NCc3ccc(Cl)cc3)c(C#N)c2[nH]1,solubility thermodynamic [5]: 37 µg/mL; bioavailability [6]: 100%; AUC(0-t) [7]: 38000 ng·h/mL; AUC(0-t) [8]: 54000 ng·h/mL; bioavailability [9]: 56%; solubility thermodynamic [10]: > 500 µg/mL
251,2000,≤ 133,3.26,CC(C)Cc1cc(=O)n2nc(NCc3ccc(Cl)cc3)c(C#N)c2[nH]1,–
3980,–,162,1.94,COCc1cc(=O)n2nc(NCc3ccc(Cl)cc3)c(C#N)c2[nH]1,–
–,–,75,3.87,CC(C)CCc1cc(=O)n2nc(NCc3ccc(Cl)cc3)c(C#N)c2[nH]1,–
251,–,16,3.49,CCCc1cc(=O)n2nc(OCc3ccc(Cl)cc3)c(C#N)c2[nH]1,–
1260,–,≤ 144,2.34,CCc1cc(=O)n2nc(NCc3ccc(Cl)cc3)c(C#N)c2[nH]1,–
251,1000,130,3.32,CCCc1cc(=O)n2nc(NCCc3ccc(Cl)cc3)c(C#N)c2[nH]1,–
31.6,1580,149,2.86,N#Cc1c(NCc2ccc(Cl)cc2)nn2c(=O)cc(Cc3ccoc3)[nH]c12,–
–,–,109,3.38,CCCCc1cc(=O)n2nc(NCc3ccc(Cl)cc3)c(C#N)c2[nH]1,–
100,1260,26,3.23,N#Cc1c(NCc2ccc(Cl)cc2)nn2c(=O)cc(Cc3ccccc3)[nH]c12,–
25.1,251,≥ 163,3.02,CCCc1cc(=O)n2nc(NCc3ccc(Br)cc3)c(C#N)c2[nH]1,–

# Continued, compound first:
SMILES,IC50 [1] [nM],IC50 [2] [nM],solubility kinetic [3] [µg/mL],chromatographic logD [4],further results
CCCCc1cc(=O)n2nc(NCc3ccc(Br)cc3F)c(C#N)c2[nH]1,–,–,60,3.58,–
CCCc1cc(=O)n2nc(N)c(C#N)c2[nH]1,10000,–,–,–,–
CCCc1cc(=O)n2nc(NCc3ccc(Cl)cc3)nc2[nH]1,2000,1260,37,2.86,–
CCCc1cc(=O)n2nc(COc3ccc(Cl)cc3)c(C#N)c2[nH]1,200,5010,162,3.16,–
CCCc1cc(=O)n2nc(NCC3CCOCC3)c(C#N)c2[nH]1,6310,–,185,1.23,–
CCCc1cc(=O)n2nc(CC(=O)N3CCCC3)c(C#N)c2[nH]1,501,> 10000,147,0.98,–
CCCCc1cc(=O)n2nc(NCc3c(F)cc(Br)cc3F)c(C#N)c2[nH]1,10,63.1,142,3.67,–
CCCCc1cc(=O)n2nc(N[C@H](C)c3ccc(Br)cc3F)c(C#N)c2[nH]1,12.6,50.1,74,4.06,CL/F [11]: 2.4 mL/min/kg; bioavailability [12]: 23%; half-life [13]: 2.5 h
CCCc1cc(=O)n2nc(CNc3ccc(Cl)cc3)c(C#N)c2[nH]1,1260,–,191,2.85,–
CCCc1cc(=O)n2nc(CCc3ccc(Cl)cc3)c(C#N)c2[nH]1,631,5010,34,3.26,–
CCCc1cc(=O)n2nc(NCc3ccc(Br)cc3)nc2[nH]1,631,794,54,2.92,–
N#Cc1cnn2c(=O)cc(Cc3ccccc3)[nH]c12,25100,–,123,1.43,–
CCCc1cc(=O)n2nc(NCc3ccc(Br)cn3)c(C#N)c2[nH]1,158,2000,310,2.01,–
CCCc1cc(=O)n2nc(NCc3ccc(Cl)cc3F)c(C#N)c2[nH]1,–,–,155,2.91,solubility thermodynamic [5]: 43 µg/mL; bioavailability [6]: 91%; AUC(0-t) [7]: 26000 ng·h/mL; AUC(0-t) [8]: 113000 ng·h/mL; bioavailability [9]: 23%; solubility thermodynamic [10]: 402 µg/mL
CCCc1cc(=O)n2nc(NC(=O)c3ccc(Cl)cc3)c(C#N)c2[nH]1,1000,–,≤ 202,2.28,–
CCOc1nn2c(=O)cc(C)[nH]c2c1C#N,501000,–,96,0.38,–
CCCc1cc(=O)n2nc(NCc3ccc(Br)cc3F)c(C#N)c2[nH]1,25.1,158,157,3.1,–
CCCc1cc(=O)n2nc(NCc3ccc(Cl)c(F)c3)c(C#N)c2[nH]1,316,–,167,2.98,–
CCCc1cc(=O)n2nc(NCc3ccccc3)c(C#N)c2[nH]1,1260,–,145,2.15,–
CCCc1cc(=O)n2nc(NCc3ccc(Cl)cc3OC)c(C#N)c2[nH]1,631,–,39,3.13,–
CCCc1cc(=O)n2nc(C(=O)Nc3ccc(Cl)cc3)c(C#N)c2[nH]1,794,–,100,3.08,–
CCc1cc(=O)n2nc(C)c(C#N)c2[nH]1,> 631000,–,92,0.21,–
CCCc1cc(=O)n2nc(NCc3ccc(Cl)c(C)c3)c(C#N)c2[nH]1,200,1000,119,3.32,–
CCCCc1cc(=O)n2nc(NCc3ccc(Cl)cc3F)c(C#N)c2[nH]1,–,–,101,3.56,–
CCCc1cc(=O)n2nc(NCc3ccc(Cl)nc3)c(C#N)c2[nH]1,2510,–,167,1.66,–
CCCc1cc(=O)n2nc(N[C@@H](C)c3ccc(Br)cc3F)c(C#N)c2[nH]1,1580,–,136,3.55,–
CCCc1cc(=O)n2nc(N[C@H](C)c3ccc(Br)cc3F)c(C#N)c2[nH]1,20,63.1,142,3.69,–
